Experiments:
[1] = test system: caterpillars of the armyworm (Spodoptera frugiperda); experiment: Spodoptera frugiperda Test; type: in vivo; conditions: cabbage leaves dipped, concentration of active compound 1000 ppm
Description: Spodoptera frugiperda Test
(§1) Solvent: 30 parts by weight of acetone

[2] = test system: greenhouse red spider mite (Tetranychus urticae); experiment: Tetranychus Test (OP-resistant/dip Treatment); conditions: bean plants dipped, OP-resistant, concentration of active compound 100 ppm
Protocol: Emulsifier: 1 part by weight of alkylaryl polyglycol ether
After the desired period of time, the kill in % is determined. 100% means that all spider mites have been killed; 0% means that none of the spider mites have been killed.

Pyricularia oryzae = type: in vivo; conditions: rice, protective, application rate 125 g/ha, evaluation 7 days after inoculation
Alternaria solani = experiment: Alternaria Test (Tomato)/protective; type: in vivo; conditions: protective, application rate 750 g/ha, evaluation 7 days after inoculation
Protocol: Alternaria Test (Tomato)/protective
To test for protective activity, young tomato plants are sprayed with the preparation of active compound at the stated application rate. 1 day after the treatment, the plants are inoculated with a spore suspension of Alternaria solani and then remain at 100% rel. humidity and 20° C. for 24 h. The plants then remain at 96% rel. atmospheric humidity and a temperature of 20° C.
Evaluation is carried out 7 days after the inoculation. 0% means an efficacy which corresponds to that of the control, whereas an efficacy of 100% means that no infection is observed.

[3] = test system: green peach aphid (Myzus persicae); experiment: Myzus test; type: in vivo; conditions: broad bean seedlings dipped, concentration of active compound 1000 ppm
Description: as §1

Plasmopara viticola = experiment: Plasmopara Test (Grapevine)/protective; type: in vivo; conditions: protective, application rate 100 g/ha, evaluation 6 days after inoculation
Protocol: Plasmopara Test (Grapevine)/protective
To test for protective activity, young plants are sprayed with the preparation of active compound at the stated application rate. After the spray coating has dried on, the plants are inoculated with an aqueous spore suspension of Plasmopara viticola and then remain in an incubation cabinet at about 20° C. and 100% relative atmospheric humidity for 1 day. The plants are then placed in a greenhouse at about 21° C. and about 90% relative atmospheric humidity for 5 days. The plants are then moistened and placed in an incubation cabin for 1 day.
Evaluation is carried out 6 days after the inoculation. 0% means an efficacy which corresponds to that of the control, whereas an efficacy of 100% means that no infection is observed.

[4] = test system: larvae of the mustard beetle (Phaedon cochleariae); experiment: Phaedon Larvae Test; type: in vivo; conditions: cabbage leaves dipped, concentration of active compound 1000 ppm
Description: as §1

Podosphaera leucotricha = experiment: Podosphaera Test (Apple)/protective; type: in vivo; conditions: protective, application rate 100 g/ha, evaluation 10 days after inoculation
Protocol: Podosphaera Test (Apple)/protective
(§2) To test for protective activity, young plants are sprayed with the preparation of active compound at the stated application rate. After the spray coating has dried on, the plants are inoculated with an aqueous spore suspension of the apple mildew pathogen Podosphaera leucotricha. The plants are then placed in a greenhouse at about 23° C. and a relative atmospheric humidity of about 70%.
(§3) Evaluation is carried out 10 days after the inoculation. 0% means an efficacy which corresponds to that of the control, whereas an efficacy of 100% means that no infection is observed.

Sphaerotheca fuliginea = experiment: Sphaerotheca Test (Cucumber)/protective; type: in vivo; conditions: protective, application rate 100 g/ha, evaluation 10 days after inoculation
Protocol: Sphaerotheca Test (Cucumber)/protective
as §2, with “Sphaerotheca fuliginea.” for “the apple mildew pathogen Podosphaera leucotricha.”
as §3

Leptosphaeria nodorum = Leptosphaeria nodorum Test (Wheat)/protective; type: in vivo; conditions: protective, application rate 750 g/ha, evaluation 12-14 days after inoculation
Protocol: Leptosphaeria nodorum Test (Wheat)/protective
To test for protective activity, young wheat plants are sprayed with the preparation of active compound at the stated application rate. 1 day after the treatment, the plants are inoculated with an aqueous spore suspension of Leptosphaeria nodorum and then remain at 100% rel. atmospheric humidity and 20° C. for 48 h. The plants are then placed in a greenhouse at 80% rel. atmospheric humidity and a temperature of 22° C.
Evaluation is carried out 12-14 days after the inoculation. 0% means an efficacy which corresponds to that of the control, whereas an efficacy of 100% means that no infection is observed.

## COC(=O)C(=COCF)c1ccccc1COc1ccn(-c2ccc(Cl)cc2)n1 [Example 1, methyl 2-[2-({[1-(4-chlorophenyl)-1H-pyrazol-3-yl]oxy}methyl)phenyl]-3-(fluoromethoxy)-2-acrylate]
[1]
  kill rate: 100%
[2]
  kill rate: 90%
Pyricularia oryzae
  efficacy: ≥ 80%
Alternaria solani
  efficacy: ≥ 80%
[3]
  kill rate: 100%
Plasmopara viticola
  efficacy: ≥ 98%
other
  chromatographic logP: 3.91
[4]
  kill rate: 100%
Podosphaera leucotricha
  efficacy: ≥ 98%
Sphaerotheca fuliginea
  efficacy: ≥ 98%
Leptosphaeria nodorum
  efficacy: ≥ 98%
